# Reference: patent US7371921B2, “Nonhuman animal model non-responsive to mycoplasma-origin lipoprotein/lipopeptide” (Japan Science and Technology Agency, priority 2000, dated 2008)
# B1: OspC: B. burgdorferi-derived lipoprotein (protein, UniProt Q07337 19-210, looked up)
# Outer surface protein C: CNNSGKDGNTSANSADESVKGPNLTEISKKITDSNAVLLAVKEVEALLSSIDEIAAKAIGKKIHQNNGLDTENNHNGSLLAGAYAISTLIKQKLDGLKNEGLKEKIDAAKKCSETFTNKLKEKHTDLGKEGVTDADAKEAILKTNGTKTKGAEELGKLFESVEVLSKAAKEMLANSVKELTSPVVAESPKKP
# Columns and labels:
# peritoneal macrophages [1] = experiment: TNFá production by peritoneal macrophages in response to lipoprotein, LPS or PGN (ELISA); type: cell-based; settings: macrophages from TLR6 knockout mouse (TLR6−/−) compared with wild-type; 24 hours; 10 μM lipoprotein, 100 ng/ml LPS, various concentrations of PGN; FIG. 3
# Description: (§1) Each of wild-type (wild-type), TLR6 knockout (TLR6−/−) and TLR2 knockout (TLR2−/−) mice were intraperitoneally injected with 2 ml of 4% thioglycollate medium (DIFCO). Three days later, peritoneal exudate cells were isolated from the peritoneal cavity of each mouse. These cells were cultured in RPMI1640 medium (GIBCO) supplemented with 10% fetal bovine serum (GIBCO) for 2 hours at 37° C. and washed with ice-cold Hank's buffered salt solution (HBSS; GIBCO) to remove nonadherent cells. Adherent cells were used as peritoneal macrophages for the following experiments.
# Therefore, responsiveness of TLR6 knockout mouse to these LPS, lipoprotein derived from Spirochaeta, and peptidoglycan derived from Staphylococcus aureus was examined. Peritoneal macrophages (5×10^4 cells) of wild-type and TLR6 knockout mice prepared in Example 2 were cultured for 24 hours together with 10 μM B. burgdorferi-derived lipoprotein OspA or OspC, 10 μM T. pallidum-derived lipoprotein 17-kDa (17) or 47-kDa (47), 100 ng/ml LPS, or various concentrations of peptidoglycan (PGN) shown in FIG. 3. When culture was completed, concentrations of TNFá in culture supernatants were measured by ELISA respectively.
# peritoneal macrophages [2] = experiment: TNF-á production by peritoneal macrophages stimulated with lipopeptide; type: cell-based, mouse; settings: 24 hours, various concentrations, FIG. 4
# Description: as §1
# (§2) Responsiveness of peritoneal macrophages derived from a wild-type mouse or a TLR6 knockout mouse to lipopeptide was examined with synthetic Gram negative bacteria-derived lipopeptide JBT3002 and synthetic mycoplasma-derived lipopeptide MALP-2. Peritoneal macrophages (5×10^4 cells) of wild-type and TLR6 knockout mice prepared in Example 2 were cultured for 24 hours together with various concentrations of JBT3002 (provided by Dr. Z. Dong) or MALP-2 (provided by Dr. P. F. Muhlradt) shown in FIG. 4, and stimulated. When culture was completed, the production amounts of TNF-á (TNFá) and NO2^− (NO) in culture supernatants were measured (FIG. 4). NO2^− was measured by the Greiss method using NO2/NO3 Assay Kit (Dojindo Laboratories).
# peritoneal macrophages [3] = experiment: NO2^− production by peritoneal macrophages stimulated with lipopeptide (Greiss method); type: cell-based, mouse; settings: 24 hours, various concentrations, FIG. 4
# Description: as §1, §2
# NF-êB = NF-êB activation in peritoneal macrophages (nucleoprotein binding to NF-êB DNA probe, electrophoresis, autoradiography); type: cell-based, mouse; settings: 0.1 ng/ml JBT3002 or 0.3 ng/ml MALP-2 for 20 or 40 minutes, FIG. 5
# Description: as §1
# It is known that TLR signals activate IRAK, which is serine/threonine kinase, via an adapter molecule MyD88 and then activate MAP kinase and NF-êB (Immunity 11, 115-122, 1999). In addition, it is also known that a mycoplasma-derived lipoprotein/lipopeptide causes vital reaction via TLR2 and MyD88 signaling pathways (J. Immunol. 164, 554-557, 2000). Consequently, with wild-type, TLR6 knockout and TLR2 knockout mice, whether a bacteria-derived lipoprotein/lipopeptide activates intracellular signaling molecules was examined. Peritoneal macrophages (1×10^6 cells) of wild-type (wild-type) and TLR6 knockout (TLR6−/−) and TLR2 knockout (TLR2−/−) mice prepared in Example 2 were stimulated with 0.1 ng/ml JBT3002 or 0.3 ng/ml MALP-2 for 20 or 40 minutes, and nucleoproteins were extracted from macrophages of each mouse and incubated with a specific probe containing DNA binding site of NF-êB, then subjected to electrophoresis and visualized by autoradiography (FIG. 5).
# [4] = macrophages from TLR6 knockout mouse (TLR6−/−)
# [5] = macrophages from wild-type mouse
molecule,measurement,setting,value
OspA: B. burgdorferi-derived lipoprotein,TNFá in culture supernatant,peritoneal macrophages [1],approximately the same amount of TNFá as macrophages derived from a wild-type mouse
MALP-2,production amount of TNF-á,peritoneal macrophages [2]; [4],produced no TNF-á and NO2^−
same,production amount of TNF-á,peritoneal macrophages [2]; [5],increased the production amounts of TNF-á (TNFá) and NO2^− (NO) in a manner dependent on doses
same,production amount of NO2^−,peritoneal macrophages [3]; [4],produced no TNF-á and NO2^−
same,production amount of NO2^−,peritoneal macrophages [3]; [5],increased the production amounts of TNF-á (TNFá) and NO2^− (NO) in a manner dependent on doses
same,activation of NF-êB,NF-êB; macrophages from TLR2 knockout mouse (TLR2−/−),no activation was observed
same,activation of NF-êB,NF-êB; [4],no activation in response to MALP-2 was observed
same,activation of NF-êB,NF-êB; [5],activation of NF-êB in response to the stimulation with MALP-2 or JBT3002 was observed
lipopolysaccharide [LPS],TNFá in culture supernatant,peritoneal macrophages [1],approximately the same amount of TNFá as macrophages derived from a wild-type mouse
peptidoglycan [PGN],TNFá in culture supernatant,peritoneal macrophages [1],approximately the same amount of TNFá as macrophages derived from a wild-type mouse
B1,TNFá in culture supernatant,peritoneal macrophages [1],approximately the same amount of TNFá as macrophages derived from a wild-type mouse
